Experimental data reported in patent publication US5429766A, “Detergent composition containing alkaline pullylanase enzyme” (Kao Corporation, priority 1990, dated 1995).

What was measured:
Format in all cases: biochemical
[1] = test system: alkaline pullulanase A from Bacillus sp. KSM-AP 1876 (FERM BP-3049); assay: Effects of chelating agents on pullulanase activity of alkaline pullulanase A; conditions: substrate pullulan
Experimental: (§1) 0.1 ml of enzyme solution was added to 0.9 ml of a substrate solution consisting of a buffer solution and pullulan (final concentration in the reaction system was 0.25%), and the mixture was reacted at 40° C. for 30 minutes. After the reaction, reducing sugar was quantitatively determined by a method of the 3,5-dinitrosalicylic acid (DNS).
(§2) Specifically, 1.0 ml of DNS reagent was added to 1.0 ml of reaction mixture, and the mixture was heated at 100° C. for 5 minutes to develop color. After cooling, the mixture was diluted by adding 4.0 ml of deionized water. This solution was subjected to colorimetric quantitative analysis at a wave length of 535 nm. One unit (1U) of enzyme activity was defined as the amount of enzyme which released 1 μmol of reducing sugar (as glucose) per minute.

[2] = test system: alkaline pullulanase B (having α-amylase activity) from Bacillus sp. KSM-AP 1378 (FERM BP-3048), pullulanase activity; assay: Effects of chelating agents on pullulanase activity of alkaline pullulanase B; conditions: for Effect of chelating agent on pullulanase activity: chelating agent 10 mM; for Residual activity (%), Pullulanase activity: compound 10 mM, no addition = 100
Experimental: as §1, §2
Same procedures were followed as mentioned in the section of alkaline pullulanase A.
The α-amylase activity which had been adversely affected by chelating agents can be restored by the addition of Ca^2+ ions as shown in Table 3.

[3] = test system: alkaline pullulanase B (having α-amylase activity) from Bacillus sp. KSM-AP 1378 (FERM BP-3048), α-amylase activity; assay: Effects of chelating agents on α-amylase activity of alkaline pullulanase B
Experimental: as §2, with “0.1 ml of enzyme solution was added to 0.9 ml of a substrate solution consisting of a buffer solution and soluble starch (final concentration in the reaction system was 0.25%), and the mixture was reacted at 50° C. for 15 minutes. After the reaction, reducing sugar was quantitatively determined by means of a DNS method. Specifically,” for “Specifically,”, “at” for “at a”

Row | SMILES | Effect of chelating agent on pullulanase activity ([1]; chelating agent 10 mM) | Effect of chelating agent on pullulanase activity [2] | Residual activity (%), Pullulanase activity [2] | Effect of chelating agent on pullulanase activity ([1]; chelating agent 0.05% by weight) | Effect of chelating agent on α-amylase activity ([3]; chelating agent 10 mM, restored by addition of Ca2+ ions) | Residual activity (%), α-Amylase activity, when Ca2+ ions were added again ([3]; compound 10 mM, then Ca2+ ions added again (values in parentheses)) | Residual activity (%), α-Amylase activity ([3]; compound 10 mM, no addition = 100)
1 | O=C(O)CN(CCN(CC(=O)O)CC(=O)O)CC(=O)O [EDTA] | almost no adverse effects | almost no adverse effect | 77% | – | – | – | –
2 | O=C(O)CC(O)(CC(=O)O)C(=O)O [citric acid] | – | – | – | almost no adverse effects | – | – | –
3 | O=C(O)CN(CCOCCOCCN(CC(=O)O)CC(=O)O)CC(=O)O [EGTA] | almost no adverse effects | almost no adverse effect | 65% | – | adversely affected significantly | 91% | 18%
